“Also recorded” adds a separate entry of the source.
What was measured:
THP-1 cells = experiment: IL-10 release by LPS-stimulated THP-1 cells (ELISA); assay type: cell-based
Experimental: (§1) FIG. 11. The anti-inflammatory potential of cotinine is a GSK-3β-dependent but NF-κB-independent phenomenon. THP-1 Blue cells are stably transfected with a reporter plasmid expressing secreted embryonic alkaline phosphatase (SEAP) gene under the control of a NF-κB-inducible promoter. […] Cell-free supernatants were harvested by centrifugation and relative expression levels of SEAP (reflecting NF-κB; THP-1 Blue; circles) and IL-10 (THP-1; bars) were determined by spectrophotometric analysis of SEAP activity and ELISA, respectively.
(§2) THP-1 Blue cells are monocyte-like cells that have been stably transfected with a reporter plasmid expressing secreted embryonic alkaline phosphatase (SEAP) gene under the control of a NF-κB-inducible promoter. […] Cell-free supernatants were harvested by centrifugation and relative expression levels of NF-κB and IL-10 were determined by spectrophotometric analysis of SEAP activity and ELISA, respectively.
Levels of phosphorylated Akt and phoshorylated GSK-3β following cotinine (0-100 ng ml^−1) and/or E. coli LPS (1 μg ml^−1) treatment were determined by western blot using whole-cell lysates (20 μg) with probing for Akt using a phospho-specific Akt (Ser473) antibody; probing for GSK-3β using a phospho-specific GSK-3β (Ser9; denoted pGSK-3β) antibody; with the blots stripped and re-probed for total p38 to ensure equivalent loading. Antibodies were purchased from Cell Signaling, Beverly, Mass. Blots were visualized by enhanced chemiluminescence. The importance of the PI3K-dependent anti-inflammatory pathway in cotinine-induced inflammatory suppression was also established by pharmacological inhibition of PI3K and GSK-3β using the PI3K antagonists LY294002 (25 μM; Calbiochem®, San Diego, Calif.) and wortmannin (100 nM, Calbiochem); and the GSK-3β inhibitor SB216763 (6 μM; Sigma). […] Therefore, cells were also analyzed for cotinine-induced PI3K activation by, assaying the ability of PI3K to produce PIP3. Levels of PIP3 were determined by ELISA using a competitive inhibition assay (Echelon Bioscience, Salt Lake City, Utah). […]

LPS-stimulated monocytes [1] = experiment: Pro-inflammatory cytokine release by LPS-stimulated human monocytes (ELISA); assay type: cell-based
Experimental: FIGS. 3A-3E. […] Monocytes were pre-treated with cotinine (1000 ng/ml) for 2 hours then stimulated with purified LPS (0 to 1×10^4 ng/ml) for 24 hours.
FIGS. 6A-6E. […] Cells were pre-treated with nicotine or cotinine (100 and 1000 ng/ml, respectively) for 2 hours then stimulated with purified LPS (0 to 1×10^4 ng/ml) for 24 hours. […] FIG. 6A provides data for IFNγ; FIG. 6B provides data for IL-1β, FIG. 6C provides data for IL-6, FIG. 6D provides data for TNF-α, and FIG. 6E provides data for IL-12/IL-23 p40.
Cotinine inhibited the production and release of multiple pro-inflammatory cytokines by monocytes stimulated with Toll-like receptor (TLR)-agonists in a dose-dependent manner. Cells were pre-treated with cotinine for 2 hours then stimulated with a TLR-agonist (purified LPS, 0 to 1×10^4 ng ml^−1) for 24 hours.
Inflammatory response of cotinine-exposed monocytes to P. gingivalis and LPS: In an initial series of experiments, we determined how physiological doses of nicotine and cotinine influenced levels of TNF secreted by monocytes stimulated with LPS. Human monocytes were pre-treated for 90 minutes with nicotine (1 to 1,000 ng/ml; Sigma-Aldrich, Inc.) or cotinine (1 to 10,000 ng/ml; Sigma-Aldrich, Inc.), then stimulated with purified E. coli K-12 LPS (0 to 10 μg/ml; InVivoGen™, San Diego, Calif.). TNF concentrations in 24 hr supernatants were measured by ELISA (eBioscience, San Diego, Calif.). Subsequently, the concentrations of multiple cytokines in 24 hr supernatants of cotinine pre-incubated (1000 ng/ml) LPS-([…]) stimulated monocytes were measured by ELISA (IFN-γ (PBL Biomed Labs, Piscataway, N.J.), IL-1β, IL-6, TNF, IL-10 (all eBioscience), and IL-12/IL-23 p40 (R&D Systems, Minneapolis, Minn.).
Primary monocytes were pre-treated with nicotine (0-100 ng ml^−1) or cotinine (0-1000 ng ml^−1) then stimulated with the Gram negative periodontal pathogen P. gingivalis (MOI=0-10); purified E. coli K-12 LPS (0-1 μml^−1; InVivoGen™, San Diego, Calif.); or purified P. gingivalis 33277 LPS for 20 h. Primary monocytes were also pre-treated with cotinine (100 ng ml^−1) then stimulated with increasing doses of LPS for 20 h. Cell-free supernatants were harvested by centrifugation and cytokine levels (TNF, IL-6, IL-10, IL-12/IL-23 p40, as appropriate) were determined by ELISA (eBioscience, San Diego, Calif. or R&D Systems, Minneapolis, Minn.).

[2] = tested on: nicotinic receptors in the brain; details: cited from earlier work
LPS-stimulated monocytes [3] = experiment: IL-10 release by LPS-stimulated human monocytes (ELISA); assay type: cell-based
neutrophils = details: cited from earlier work
primary monocytes = experiment: Viability of primary monocytes
Experimental: Monocytes were pre-treated for 2 h with nicotine (triangles) or cotinine (squares) then stimulated with P. gingivalis (MOI=10) for 20 h. Cell-free supernatants were harvested by centrifugation and levels of TNF-α were determined by ELISA.
(A-E) Control monocytes (closed squares) and monocytes pre-treated with cotinine (100 ng ml^−1) for 2 hours (open squares) were stimulated with P. gingivalis 33277 LPS (0-10^5 ng ml^−1) for 24 hours. Cell-free supernatants were harvested by centrifugation and levels of pro-inflammatory cytokines (A-E) and IL-10 (E) were determined by ELISA. Data are the arithmetic mean±s.d. of 3 experiments.

NF-κB = experiment: NF-κB-inducible SEAP reporter in LPS-stimulated THP-1 Blue cells; assay type: cell-based; details: cotinine 100 ng ml^−1 2 h, LPS 1 μg ml^−1 24 h
Experimental: as §1, §2

GSK-3β (Ser9) = experiment: Phosphorylated GSK-3β western blot in monocytes; assay type: cell-based, human; details: P. gingivalis stimulated monocytes
Experimental: (§3) Antibodies were purchased from Cell Signaling, Beverly, Mass. Blots were visualized by enhanced chemiluminescence. The importance of the PI3K-dependent anti-inflammatory pathway in cotinine-induced inflammatory suppression was also established by pharmacological inhibition of PI3K and GSK-3β using the PI3K antagonists LY294002 (25 μM; Calbiochem®, San Diego, Calif.) and wortmannin (100 nM, Calbiochem); and the GSK-3β inhibitor SB216763 (6 μM; Sigma). Activated PI3K produces PIP3 that, in turn, activates downstream signaling components of the PI3K pathway. Therefore, cells were also analyzed for cotinine-induced PI3K activation by, assaying the ability of PI3K to produce PIP3. Levels of PIP3 were determined by ELISA using a competitive inhibition assay (Echelon Bioscience, Salt Lake City, Utah). The specific PI3K inhibitor LY294002 was used at 25 μM and served as a control to block PI3K activity.

[4] = cited from earlier work; for Terminal elimination half-life: in vivo
PI3K = PI3K activation in monocytes measured as PIP3 (competitive ELISA); assay type: cell-based, human; details: LPS 1 μg ml^−1 60 minutes
[5] = tested on: P. gingivalis-stimulated human monocytes; experiment: TNF release by P. gingivalis-stimulated human monocytes (ELISA); assay type: cell-based; details: for TNF release compared to cells stimulated with P. gingivalis alone: 2 h pre-treatment with nicotine or cotinine, P. gingivalis MOI=10 for 20 h, dose-dependent
Akt (Ser473) = experiment: Phosphorylated Akt western blot in monocytes; assay type: cell-based, human; details: P. gingivalis stimulated monocytes; PI3K-dependent
Experimental: as §3

[6] = tested on: THP-1 or THP-1 Blue cells; experiment: Viability of THP-1 or THP-1 Blue cells; assay type: cell-based; details: cotinine 100 ng ml^−1
[7] = tested on: striatal dopamine release; details: cited from earlier work
[8] = cited from earlier work
[9] = cotinine 100 ng ml^−1 2 h, P. gingivalis 33277 LPS 0-10^5 ng ml^−1 24 h
[10] = cotinine 1000 ng/ml 2 h, LPS 0 to 1×10^4 ng/ml 24 h

With Cn1cc(C2=C(c3ccc(Cl)cc3Cl)C(=O)NC2=O)c2ccccc21 [SB216763] the IL-10 production (THP-1 cells; GSK-3β inhibitor SB216763 6 μM, LPS) was “enhances IL-10 production in response to LPS” and the “Potency as inducer of IL-10 relative to cotinine” value (THP-1 cells; SB216763 versus cotinine 10 ng ml^−1, p<0.05) was “significantly less potent inducer of IL-10 than cotinine; also recorded: less potent than even low doses of cotinine”.

In the case of CN1C(=O)CC[C@H]1c1cccnc1 [cotinine, (S)-1-methyl-5-(3-pyridinyl)-2-Pyrrolidinone], the IL-1β release (LPS-stimulated monocytes [1]; [9]) is reported as “dramatically suppresses”, the IL-6 release (LPS-stimulated monocytes [1]; [9]) is reported as “dramatically suppresses” and the “IL-12/IL-23 p40 subunit release” value (LPS-stimulated monocytes [1]; [9]) is reported as “dramatically suppresses”. For the same compound, the TNF-α release (LPS-stimulated monocytes [1]; [9]) was “dramatically suppresses”, the IFN-γ production (LPS-stimulated monocytes [1]; [10]) was “suppressed” and the IL-1β production (LPS-stimulated monocytes [1]; [10]) was “suppressed”. The IL-6 production (LPS-stimulated monocytes [1]; [10]) was “suppressed”, the “IL-12/IL-23 p40 production” value (LPS-stimulated monocytes [1]; [10]) was “suppressed” and the TNF-α production (LPS-stimulated monocytes [1]; [10]) was “suppressed”. For the same compound, the “Upregulation of nicotinic receptor expression in the brain” value [2] was “does not appear to upregulate”, the IL-10 release (LPS-stimulated monocytes [3]; cotinine 0 to 10,000 ng/ml 2 h, purified LPS 24 h) was “increased the production and release; also recorded: enhanced production; also recorded: increases the release” and the IL-10 production (LPS-stimulated monocytes [3]; cotinine 100 ng ml^−1 2 h, P. gingivalis 33277 LPS 24 h) was “enhancing production; also recorded: augments IL-10 production”. The “Release of free radicals from neutrophils” value (neutrophils) was “suppresses the release of free radicals from neutrophils”, the “Viability of primary monocytes compared to P. gingivalis alone” value (primary monocytes; cotinine 0 to 10^5 ng ml^−1) was “no statistically significant effect” and the “Viability of primary monocytes compared to LPS alone” value (primary monocytes; cotinine 100 ng ml^−1) was “no statistically significant effect”. For the same compound, the “LPS-induced NF-κB (SEAP activity)” value (NF-κB) was “not affected; also recorded: not influenced”, the “Levels of phosphorylated (inactive) GSK3-β” value (GSK-3β (Ser9)) was “augments” and the IL-10 production (THP-1 cells; cotinine pre-treatment 2 h, LPS 1 μg ml^−1 24 h) was “augment IL-10 production”. The “Systemic concentration relative to nicotine” value ([4]; humans) was “ten-fold”, the Terminal elimination half-life [4] was “sixteen” and the “Systemic levels in second-hand smokers” value ([4]; second-hand smokers) was 1 to 15 ng/mL. The “Mean concentration in smokers” value [4] was 200 to 500 ng/mL, the “PIP3 levels (PI3K activation)” value (PI3K) was “potently augments the activation of PI3K; also recorded: increased PIP3 levels” and the “TNF release compared to cells stimulated with P. gingivalis alone” value [5] was “equally as effective as nicotine; also recorded: produce significantly less TNF-α”. For the same compound, the “Levels of phosphorylated (active) Akt” value (Akt (Ser473)) was “enhances”, the “Viability of THP-1 or THP-1 Blue cells compared to LPS alone” value [6] was “no statistically significant effect” and the Striatal dopamine release [7] was “evokes striatal dopamine release”. For the same compound, the “Vasoactivity (heart rate, blood pressure, skin temperature)” value ([8]; cotinine infusions in humans) was “may not be vasoactive”, the Addictiveness ([8]; in vivo) was “non-addictive” and the “Safety of administration to humans” value ([8]; levels as high as 10 times that attained from cigarette smoking) was “safe”.

For CNC1(C)C2CCC(C2)C1(C)C (centres unmarked) [mecamylamine], the “Effect of non-selective nAChR antagonist on cotinine-induced inflammatory suppression” value ([5]; mecamylamine 10 μM pre-incubation) was “nAChR-dependent phenomenon”.

For CN1CCC[C@H]1c1cccnc1 [nicotine, (S)-3-(1-methyl-2-pyrrolidinyl)pyridine, reference compound], the Terminal elimination half-life [4] is listed as “two”, the “Fraction of nicotine converted to cotinine” value ([4]; metabolized by the liver) is listed as “up to 80%” and the “Mean concentration in smokers” value [4] is listed as about 30 ng/mL. The “PIP3 levels (PI3K activation)” value (PI3K) was “increased PIP3 levels” and the “TNF release compared to cells stimulated with P. gingivalis alone” value [5] was “inhibits the release of TNF; also recorded: produce significantly less TNF-α”.

Source: patent US20100143270A1, “THERAPEUTIC COTININE COMPOSITIONS” (University of Louisville Research Foubdation, priority 2007, published 2010)
